The source of these data is patent US20060148714A1, “Therapeutic peptide-based constructs” (priority 1999, published 2006).

Data set [1] deals with Factor Xa neutralization by ATIII/heparin complexes. Put plainly: Chromostrate heparin anti-Factor Xa assay (heparin neutralization). The format is biochemical. The note with it: absorbance at 405 nm.
Data set [2] is described as follows: Behaviour in 1 mg/ml stock solution. The format is physicochemical. Also noted: key: b: precipitated in 1 mg/ml stock solution. As to conditions: no IC50 given.

Where no end group is shown, it is not given here. [ ]: non-standard residue; d: D form. The star is where a group is joined. 2‑biphenylenecarbonyl = O=C(c1ccc2c(c1)-c1ccccc1-2)*

Take “2-biphenylenecarbonyl-k-l-f-r-(naph-a)-q-a-k ({2‑biphenylenecarbonyl}-[dK][dL][dF][dR][dNal][dQ][dA][dK]; not fully specified; printed as 2-biphenylenecarbonyl-k-l-f-r-(naph-a)-q-a-k) [XMP.699]”: the “Assay A: percent heparin neutralization relative to protamine (100%)” value in data set [1] (Assay A) is recorded as 45%. Moreover, the “Assay B: percent heparin neutralization relative to protamine (100%)” value in data set [1] (Assay B) is recorded as 23%. The “precipitated in 1 mg/ml stock solution” value in data set [2] is “b”.
